This note sets out measurements from patent US10414728B2 (priority 2014, dated 2019).

Counter-ions that a name gives are not always drawn. Like-named read-outs stand apart in the source and are kept apart here.

Series [1] concerns NaV 1.1 to NaV 1.8. In words: Electrophysiology, summary over the NaV panel. The series is classed as cell-based, human. As to the method:
(§1) Effects on Human NaV 1.1, NaV 1.2, NaV1.3, NaV 1.4, NaV 1.5, NaV 1.6, NaV 1.7 and NaV 1.8/β3 Sodium Channels Expressed in Mammalian Cells
(§2) CHO cells were stably transfected with human ion channel cDNAs. Stable transfectants were selected by expression with the antibiotic-resistance gene(s) incorporated into the expression plasmid(s). Selection pressure was maintained by including selection antibiotics in the culture medium. CHO cells were cultured in Ham's F-12 supplemented with 10% fetal bovine serum, 100 U/mL penicillin G sodium, 100 μg/mL streptomycin sulfate and appropriate selection antibiotics. Before testing, cells in culture dishes were washed twice with Hank's Balanced Salt Solution (HB-PS) and treated with Accutase for approximately 20 minutes. Immediately before use in IonWorks Barracuda™, the cells were washed in HB-PS to remove the Accutase and re-suspended in HB-PS. All experiments were performed at ambient temperature. […] Duration of exposure to each test article concentration was five (5) minutes. Inhibition of NaV channels was measured using a stimulus voltage pattern. The pulse pattern was repeated before (baseline) and for five (5) minutes after compound addition. Peak current amplitudes were measured for test pulses TP1 (inactivated state inhibition), TP2, TP3 (tonic inhibition) and TP22 (use-dependent inhibition).
(§3) where [C] was the concentration of test article, IC50 was the concentration of the test article producing half-maximal inhibition, N was the Hill coefficient, % VC was the percentage of the current run-down (the mean current inhibition at the vehicle control) and % Block was the percentage of ion channel current inhibited at each concentration of a test article. Nonlinear least squares fits were solved with the XLfit add-in for Excel (Microsoft, Redmond, Wash.).

Series [2] deals with T1, human NaV 1.1 (Homo sapiens, UniProt P35498).
T1 construct: expressed in transfected cells; host or cells: CHO
In words: Electrophysiology, IonWorks Barracuda, NaV channel block in CHO cells. The series is classed as cell-based. The note with it: Nav1.1, CHO cells, 5 min exposure, ambient temperature. As for the experimental part:
as §1
as §2, with “Peak current amplitudes were measured for test pulses TP1 (inactivated state inhibition), TP2, TP3 (tonic inhibition) and TP22 (use-dependent inhibition).” left out
as §3
A general note: In patch-clamp work, channel activity is measured electrically.

The target of series [3] is T2, human NaV 1.4 (Homo sapiens, UniProt P35499).
T2 construct: expressed in transfected cells; host or cells: CHO
T2 sequence (P35499 whole entry): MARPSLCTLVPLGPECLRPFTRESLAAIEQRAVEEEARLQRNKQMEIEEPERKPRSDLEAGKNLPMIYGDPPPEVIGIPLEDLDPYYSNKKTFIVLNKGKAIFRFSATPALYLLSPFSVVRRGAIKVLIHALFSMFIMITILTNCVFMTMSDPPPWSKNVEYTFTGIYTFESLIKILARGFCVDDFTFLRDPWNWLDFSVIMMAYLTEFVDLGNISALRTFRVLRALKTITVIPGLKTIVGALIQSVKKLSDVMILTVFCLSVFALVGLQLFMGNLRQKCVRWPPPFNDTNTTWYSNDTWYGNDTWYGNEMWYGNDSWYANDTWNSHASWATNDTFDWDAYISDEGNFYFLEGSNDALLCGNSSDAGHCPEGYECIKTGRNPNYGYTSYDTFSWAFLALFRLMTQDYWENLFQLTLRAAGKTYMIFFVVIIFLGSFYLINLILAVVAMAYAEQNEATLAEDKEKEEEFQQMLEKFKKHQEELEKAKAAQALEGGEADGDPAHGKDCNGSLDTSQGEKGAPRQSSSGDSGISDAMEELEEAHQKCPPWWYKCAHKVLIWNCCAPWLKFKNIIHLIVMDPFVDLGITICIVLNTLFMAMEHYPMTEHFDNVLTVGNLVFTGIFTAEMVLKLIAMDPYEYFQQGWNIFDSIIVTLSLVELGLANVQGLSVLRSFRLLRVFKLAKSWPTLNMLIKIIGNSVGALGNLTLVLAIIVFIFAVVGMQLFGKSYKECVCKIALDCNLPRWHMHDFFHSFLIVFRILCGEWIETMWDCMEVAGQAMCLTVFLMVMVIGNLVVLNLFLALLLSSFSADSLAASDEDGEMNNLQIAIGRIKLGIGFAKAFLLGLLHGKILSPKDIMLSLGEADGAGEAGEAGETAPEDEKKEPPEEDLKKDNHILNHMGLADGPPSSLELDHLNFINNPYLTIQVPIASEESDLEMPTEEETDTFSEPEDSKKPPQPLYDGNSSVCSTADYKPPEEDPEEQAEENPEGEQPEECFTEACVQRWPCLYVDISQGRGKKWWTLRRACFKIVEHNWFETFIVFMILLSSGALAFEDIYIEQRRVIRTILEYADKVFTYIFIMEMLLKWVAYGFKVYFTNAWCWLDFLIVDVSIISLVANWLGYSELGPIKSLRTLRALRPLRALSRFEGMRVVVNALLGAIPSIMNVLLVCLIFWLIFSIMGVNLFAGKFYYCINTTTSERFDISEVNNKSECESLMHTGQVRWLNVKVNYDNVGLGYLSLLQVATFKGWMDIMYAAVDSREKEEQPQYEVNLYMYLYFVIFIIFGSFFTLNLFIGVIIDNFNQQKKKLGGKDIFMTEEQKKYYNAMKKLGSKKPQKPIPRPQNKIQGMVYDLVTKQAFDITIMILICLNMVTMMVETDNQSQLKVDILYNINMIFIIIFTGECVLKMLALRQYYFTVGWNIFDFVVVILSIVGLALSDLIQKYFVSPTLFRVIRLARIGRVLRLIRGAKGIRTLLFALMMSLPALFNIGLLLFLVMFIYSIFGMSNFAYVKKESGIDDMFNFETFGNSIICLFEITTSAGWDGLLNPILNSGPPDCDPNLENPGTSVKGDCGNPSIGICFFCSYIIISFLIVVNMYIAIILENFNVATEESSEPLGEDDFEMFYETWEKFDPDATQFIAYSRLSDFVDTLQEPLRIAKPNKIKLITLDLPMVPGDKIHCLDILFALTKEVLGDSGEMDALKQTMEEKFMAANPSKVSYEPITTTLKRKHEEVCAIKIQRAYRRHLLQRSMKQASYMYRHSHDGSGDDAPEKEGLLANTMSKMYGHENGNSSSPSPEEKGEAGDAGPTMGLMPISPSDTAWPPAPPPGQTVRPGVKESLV
The series is described as above. The format is cell-based. The settings on record: Nav1.4, CHO cells, 5 min exposure, ambient temperature. As for the experimental part: as §1
as §2, with “Peak current amplitudes were measured for test pulses TP1 (inactivated state inhibition), TP2, TP3 (tonic inhibition) and TP22 (use-dependent inhibition).” left out
as §3

Series [4] addresses T3, human NaV 1.6 (Homo sapiens, UniProt Q9UQD0).
T3 construct: expressed in transfected cells; host or cells: CHO
The series is described as above. The settings on record: Nav1.6, CHO cells, 5 min exposure, ambient temperature. The format is cell-based. As for the experimental part: as §1
as §2, with “Peak current amplitudes were measured for test pulses TP1 (inactivated state inhibition), TP2, TP3 (tonic inhibition) and TP22 (use-dependent inhibition).” left out
as §3

The target of series [5] is T4, human NaV 1.2 (Homo sapiens, UniProt Q99250).
T4 construct: expressed in transfected cells; host or cells: CHO
Described as above. The format is cell-based. The settings on record: Nav1.2, CHO cells, 5 min exposure, ambient temperature. As to the method: as §1
as §2, with “Peak current amplitudes were measured for test pulses TP1 (inactivated state inhibition), TP2, TP3 (tonic inhibition) and TP22 (use-dependent inhibition).” left out
as §3

The target in series [6] is T5, human NaV 1.8/β3 (Homo sapiens, UniProt Q9Y5Y9).
T5 construct: expressed in transfected cells; host or cells: CHO
The series is described as above. The series is classed as cell-based. The note with it: Nav1.8, CHO cells, 5 min exposure, ambient temperature. As for the experimental part: as §1
as §2, with “Peak current amplitudes were measured for test pulses TP1 (inactivated state inhibition), TP2, TP3 (tonic inhibition) and TP22 (use-dependent inhibition).” left out
as §3

Series [7] deals with T6, human NaV1.3 (Homo sapiens, UniProt Q9NY46).
T6 construct: expressed in transfected cells; host or cells: CHO
The description is as above. The format is cell-based. The settings on record: Nav1.3, CHO cells, 5 min exposure, ambient temperature. As for the experimental part: as §1
as §2, with “Peak current amplitudes were measured for test pulses TP1 (inactivated state inhibition), TP2, TP3 (tonic inhibition) and TP22 (use-dependent inhibition).” left out
as §3

Series [8] has as its target T7, human NaV 1.7 (Homo sapiens, UniProt Q15858).
T7 construct: expressed in transfected cells; host or cells: CHO
Described as above. The series is classed as cell-based. The settings on record: Nav1.7, CHO cells, 5 min exposure, ambient temperature. As for the experimental part:
as §1
as §2, with “Peak current amplitudes were measured for test pulses TP1 (inactivated state inhibition), TP2, TP3 (tonic inhibition) and TP22 (use-dependent inhibition).” left out
as §3

A short description of series [9]: Solubility observation. The series is classed as physicochemical. The settings on record: DMSO and acetonitrile/water. As for the experimental part:
A solution of methyl biphenyl-4-yl(1,2,5,6-tetrahydropyridin-2-yl)acetate hydrochloride salt (10.0 g, crude) in acetonitrile (40 mL) was charged with Methyl tert.-butyl ether (80 mL) and water (7.0 mL) at room temperature. The reaction mixture was stirred for 10 min at room temperature. The resulted solids were filtered, washed with Methyl tert.-butyl ether (25 mL) and was dried to afford EXAMPLE 1E (Enantiomeric pair consisting of Methyl (2R)-biphenyl-4-yl[(2S)-1,2,5,6-tetrahydropyridin-2-yl]acetate hydrochloride, EXAMPLE 1C, & Methyl (2S)-biphenyl-4-yl[(2R)-1,2,5,6-tetrahydropyridin-2-yl]acetate hydrochloride, EXAMPLE 1D, 3.75 g) as a light brown solid (96.8% HPLC purity, m/z 308 [M+H]+).

Series [10] deals with human NaV 1.5 (Homo sapiens, UniProt Q14524). Kind of series: Electrophysiology, IonWorks Barracuda, NaV channel block in CHO cells. The note with it: Nav1.5, CHO cells, 5 min exposure, ambient temperature. As for the experimental part:
as §1
as §2, with “Peak current amplitudes were measured for test pulses TP1 (inactivated state inhibition), TP2, TP3 (tonic inhibition) and TP22 (use-dependent inhibition).” left out
as §3

Series [11] concerns the target T8, Human recombinant serotonin 5-HT2A receptor (Homo sapiens, UniProt P28223).
T8 construct: expressed in transfected cells; host or cells: CHO-K1
In words: Serotonin-mediated inositol phosphate (IP1) response in CHO-K1 cells. The series is classed as cell-based. The note with it: screened at 1 μM, 30 minutes at 37° C.; for inhibition at 1 µM: CHO-K1, read-out: antagonism: inhibition of 0.3 μM serotonin-induced fluorescence response. As for the experimental part:
The 5-HT2 receptor class couples preferentially to Gq/G11 to increase hydrolysis of inositol phosphates and elevate cytosolic [Ca^2+]. Human recombinant serotonin 5-HT2A receptor stably expressed in CHO-K1 cells are used. Test compound and/or vehicle is incubated with the cells (5×10^5/ml) in stimulation buffer of IP1 Tb kit (Cisbio Bioassays) for 30 minutes at 37° C. Test compound-induced increase of fluorescence relative to the 10 μM serotonin response indicate possible serotonin 5-HT2A receptor agonist activity.

Series [12] addresses sodium channel site 2. In words: Sodium channel site 2 radioligand binding ([3H]Batrachotoxinin). The settings on record: rat brain membranes, determined in previous studies.
Setting [13] is: read-out: IC50 TP2 (inactivated state).

T3 sequence (Q9UQD0 whole entry): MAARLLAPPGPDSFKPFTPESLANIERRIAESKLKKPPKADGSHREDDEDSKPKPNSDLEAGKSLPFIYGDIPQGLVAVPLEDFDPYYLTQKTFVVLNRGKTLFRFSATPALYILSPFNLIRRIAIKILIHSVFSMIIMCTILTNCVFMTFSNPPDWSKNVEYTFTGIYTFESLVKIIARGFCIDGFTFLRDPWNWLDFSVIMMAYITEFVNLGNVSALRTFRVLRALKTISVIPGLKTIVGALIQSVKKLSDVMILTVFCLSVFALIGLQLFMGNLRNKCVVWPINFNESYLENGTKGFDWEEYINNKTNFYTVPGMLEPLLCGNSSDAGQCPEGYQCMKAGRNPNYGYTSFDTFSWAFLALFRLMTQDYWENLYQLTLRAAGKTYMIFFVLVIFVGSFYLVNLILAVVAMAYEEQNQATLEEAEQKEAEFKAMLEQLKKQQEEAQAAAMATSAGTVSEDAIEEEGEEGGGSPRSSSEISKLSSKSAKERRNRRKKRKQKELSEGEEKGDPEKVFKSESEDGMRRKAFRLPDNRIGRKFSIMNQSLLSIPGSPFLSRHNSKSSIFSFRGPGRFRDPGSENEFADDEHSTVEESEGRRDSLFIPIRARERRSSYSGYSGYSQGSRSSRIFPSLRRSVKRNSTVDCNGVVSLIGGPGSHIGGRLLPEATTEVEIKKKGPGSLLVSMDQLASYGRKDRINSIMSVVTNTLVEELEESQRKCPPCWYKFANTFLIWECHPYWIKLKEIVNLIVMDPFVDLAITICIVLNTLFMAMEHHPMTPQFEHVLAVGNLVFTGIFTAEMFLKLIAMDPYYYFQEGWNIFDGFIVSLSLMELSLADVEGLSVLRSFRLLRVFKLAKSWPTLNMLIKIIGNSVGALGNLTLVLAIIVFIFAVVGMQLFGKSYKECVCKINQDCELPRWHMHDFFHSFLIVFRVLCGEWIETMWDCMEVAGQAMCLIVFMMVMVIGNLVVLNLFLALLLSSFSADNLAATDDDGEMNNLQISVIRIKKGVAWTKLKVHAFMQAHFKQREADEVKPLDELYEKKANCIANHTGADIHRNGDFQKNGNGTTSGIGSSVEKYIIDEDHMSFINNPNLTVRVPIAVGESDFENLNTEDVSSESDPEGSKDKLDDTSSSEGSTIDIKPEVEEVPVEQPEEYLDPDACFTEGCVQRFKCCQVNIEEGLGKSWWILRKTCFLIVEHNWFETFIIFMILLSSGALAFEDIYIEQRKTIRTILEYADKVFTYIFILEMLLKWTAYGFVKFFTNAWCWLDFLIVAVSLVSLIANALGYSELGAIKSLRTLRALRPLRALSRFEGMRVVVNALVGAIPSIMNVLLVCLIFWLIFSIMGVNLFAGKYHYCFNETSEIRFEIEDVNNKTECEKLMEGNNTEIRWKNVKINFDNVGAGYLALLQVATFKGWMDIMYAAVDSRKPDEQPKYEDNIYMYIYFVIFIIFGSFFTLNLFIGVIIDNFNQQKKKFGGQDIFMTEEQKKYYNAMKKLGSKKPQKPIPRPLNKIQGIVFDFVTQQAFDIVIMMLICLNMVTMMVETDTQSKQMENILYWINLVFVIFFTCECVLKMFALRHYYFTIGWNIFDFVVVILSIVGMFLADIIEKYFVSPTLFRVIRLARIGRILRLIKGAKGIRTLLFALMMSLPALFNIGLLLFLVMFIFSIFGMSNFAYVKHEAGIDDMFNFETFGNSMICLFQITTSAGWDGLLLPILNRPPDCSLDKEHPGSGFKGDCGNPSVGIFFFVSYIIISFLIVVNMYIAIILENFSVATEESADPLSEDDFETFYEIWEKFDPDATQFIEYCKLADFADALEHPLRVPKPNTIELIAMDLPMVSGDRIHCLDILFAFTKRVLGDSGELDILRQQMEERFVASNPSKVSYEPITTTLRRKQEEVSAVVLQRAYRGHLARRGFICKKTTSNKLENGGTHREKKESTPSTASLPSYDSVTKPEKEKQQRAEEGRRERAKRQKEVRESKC
T8 sequence (P28223 whole entry): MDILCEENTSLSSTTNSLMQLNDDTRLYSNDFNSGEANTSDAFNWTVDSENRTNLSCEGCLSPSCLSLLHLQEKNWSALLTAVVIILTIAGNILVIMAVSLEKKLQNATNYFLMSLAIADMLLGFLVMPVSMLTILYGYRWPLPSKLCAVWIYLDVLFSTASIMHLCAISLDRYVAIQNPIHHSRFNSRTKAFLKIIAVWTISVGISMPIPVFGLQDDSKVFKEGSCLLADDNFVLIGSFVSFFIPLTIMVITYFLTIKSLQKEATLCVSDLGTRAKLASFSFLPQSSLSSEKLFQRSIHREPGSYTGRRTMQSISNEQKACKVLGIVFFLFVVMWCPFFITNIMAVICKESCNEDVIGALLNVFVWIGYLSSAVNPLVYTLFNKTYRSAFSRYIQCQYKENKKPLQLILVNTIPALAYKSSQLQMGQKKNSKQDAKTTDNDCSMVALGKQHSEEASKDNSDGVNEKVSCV

Broadly, the IC50 is the concentration that inhibits the measured activity by half. As for `COC(=O)[C@H](c1ccc(-c2ccccc2)cc1)[C@@H]1C=CCCN1` (racemic) [EXAMPLE 1E], the “inhibition to NaV 1.1 to NaV 1.8” value in series [1] was “showed inhibition”. Further, the half-maximal inhibitory concentration (IC50) in series [2] (IC50 TP1 (tonic)) was over 30 µM; in series [2] (IC50 TP2 (inactivated state)) it was 1.5 µM; in series [3] (IC50 TP1 (tonic)), over 30 µM; in [3] (IC50 TP2 (inactivated state)) it was 1.2 µM; in series [4] (IC50 TP1 (tonic)), over 30 µM; in series [4] (IC50 TP2 (inactivated state)), 1.2 µM. Also, the IC50 in series [5] (IC50 TP1 (tonic)) was over 30 µM; in [5] (IC50 TP2 (inactivated state)), 1.5 µM; in series [6] (IC50 TP1 (tonic)), over 30 µM; in series [6] (IC50 TP2 (inactivated state)) it was 1.1 µM; in [7] (IC50 TP1 (tonic)) it was over 30 µM; in series [7] (IC50 TP2 (inactivated state)) it was 1.3 µM. Moreover, the half-inhibitory concentration (IC50) in [8] (IC50 TP1 (tonic)) was over 30 µM; in series [8] (IC50 TP2 (inactivated state)) it was 1.3 µM; in series [10] (IC50 TP1 (tonic)) it was over 30000 nM; in series [10] (IC50 TP2 (inactivated state)), 1200 nM. For the same compound, the solubility result in series [9] was “soluble in DMSO and acetonitrile/water”.
Take `COC(=O)C(c1ccc(-c2ccccc2)cc1)C1C=CCCN1.Cl` (stereo not shown) [EXAMPLE 1, methyl biphenyl-4-yl(1,2,5,6-tetrahydropyridin-2-yl)acetate hydrochloride salt]: in [11], the “agonist activity (increase of fluorescence relative to the 10 μM serotonin response)” value is “no agonist activity”.
A word on the inhibition: it is the drop in the measured response relative to a control, in per cent. With `COC(=O)[C@H](c1ccc(-c2ccccc2)cc1)[C@@H]1C=CCCN1.Cl` [EXAMPLE 1C, Methyl (2R)-biphenyl-4-yl[(2S)-1,2,5,6-tetrahydropyridin-2-yl]acetate hydrochloride], the “inhibition to NaV 1.1 to NaV 1.8” value in series [1] was “showed inhibition”. The IC50 is over 30 µM in series [2] (IC50 TP1 (tonic)); 2.1 µM in [2] (IC50 TP2 (inactivated state)); over 30 µM in series [3] (IC50 TP1 (tonic)); 1.5 µM in series [3] (IC50 TP2 (inactivated state)); over 30 µM in series [4] (IC50 TP1 (tonic)); 2.2 µM in [4] (IC50 TP2 (inactivated state)). The IC50 in [5] (IC50 TP1 (tonic)) was over 30 µM; in [5] (IC50 TP2 (inactivated state)) it was 3.1 µM; in series [6] (IC50 TP1 (tonic)), over 30 µM; in series [6] (IC50 TP2 (inactivated state)), 1.9 µM; in series [7] (IC50 TP1 (tonic)), over 30 µM; in [7] (IC50 TP2 (inactivated state)), 2.2 µM. The IC50 in series [8] (IC50 TP1 (tonic)) is over 30 µM; in [8] (IC50 TP2 (inactivated state)), 2.5 µM; in [10] (IC50 TP1 (tonic)), over 30000 nM; in series [10] (IC50 TP2 (inactivated state)), 1500 nM. The inhibition at 1 µM in series [11] was 30%. For the same compound, the “agonist activity (increase of fluorescence relative to the 10 μM serotonin response)” value in [11] was “no agonist activity”.
As for `COC(=O)[C@@H](c1ccc(-c2ccccc2)cc1)[C@H]1C=CCCN1` [EXAMPLE 1D, Methyl (2S)-biphenyl-4-yl[(2R)-1,2,5,6-tetrahydropyridin-2-yl]acetate hydrochloride], in series [1], the “inhibition to NaV 1.1 to NaV 1.8” value is “showed inhibition”. In addition, the half-maximal inhibitory concentration (IC50) in [2] (IC50 TP1 (tonic)) is over 30 µM; in series [2] (IC50 TP2 (inactivated state)) it was 2.2 µM; in series [3] (IC50 TP1 (tonic)), over 30 µM; in series [3] (IC50 TP2 (inactivated state)), 1.3 µM; in series [4] (IC50 TP1 (tonic)), over 30 µM; in [4] (IC50 TP2 (inactivated state)), 2 µM. Moreover, the IC50 in series [5] (IC50 TP1 (tonic)) is over 30 µM; in series [5] (IC50 TP2 (inactivated state)), 2.1 µM; in series [6] (IC50 TP1 (tonic)), over 30 µM; in series [6] (IC50 TP2 (inactivated state)), 1.8 µM; in [7] (IC50 TP1 (tonic)) it was over 30 µM; in [7] (IC50 TP2 (inactivated state)), 2 µM. Besides, the half-inhibitory concentration (IC50) in series [8] (IC50 TP1 (tonic)) is over 30 µM; in series [8] (IC50 TP2 (inactivated state)), 2 µM; in series [10] (IC50 TP1 (tonic)), over 30000 nM; in series [10] (IC50 TP2 (inactivated state)), 2000 nM. In addition, the inhibition at 1 µM in [11] was determined as 37%. Also, the “agonist activity (increase of fluorescence relative to the 10 μM serotonin response)” value in series [11] is “no agonist activity”.
Take `CCN(CC)CC(=O)Nc1c(C)cccc1C` [Lidocaine, reference compound]: the IC50 in series [2] (read-out: IC50 TP1 (tonic)) was 543 µM; in series [2] (setting [13]) it was 465 µM; in series [3] (read-out: IC50 TP1 (tonic)), 389 µM; in [3] (setting [13]), 162 µM; in series [4] (read-out: IC50 TP1 (tonic)) it was 423 µM; in series [4] (setting [13]), 188 µM. In addition, the IC50 in [6] (read-out: IC50 TP1 (tonic)) is 280 µM; in series [6] (setting [13]) it was 51.4 µM; in [7] (read-out: IC50 TP1 (tonic)), 555 µM; in series [7] (setting [13]), 165 µM; in series [8] (read-out: IC50 TP1 (tonic)), 382 µM; in series [8] (setting [13]), 154 µM.
As a reminder, the Kd is the equilibrium constant for the complex coming apart. A higher Kd goes with weaker binding. In the case of [3H]Batrachotoxinin, binding in [12] was put at a Kd of 52 nM. That is a double-digit nanomolar value.
